Assay: UV-A/UV-B ratio of the UV filter compounds
Assay type: physicochemical
From the text: Typically, the numerical UV-A/UV-B ratio of these compounds, defined as the ratio of the intensity of the radiation absorbed between 320 nm and 400 nm (UVA fraction) to that absorbed between 290 nm and 320 nm (UVB fraction), is greater than 0.20, preferably greater than 0.30, whereas in the analogous triazine compounds with a 4-aminobenzoate or 4-aminobenzamide substituent different from the substituents described in Formula (IV), it is below about 0.14.
The UVA:UVB ratio is the ratio between the intensity of the radiation absorbed between 320 nm and 400 nm (UVA fraction) and that absorbed between 290 nm and 320 nm (UVB fraction).

UVA fraction compared with known triazine analogues (diethylhexyl butamido triazone, ethylhexyl triazone), at least twice as high:
CCCCC(CC)COC(=O)c1ccc(NC(=O)c2ccc(Nc3nc(Nc4ccc(C(=O)Nc5ccc(C(=O)OCC(CC)CCCC)cc5)cc4)nc(Nc4ccc(C(=O)NC(C)(C)C)cc4)n3)cc2)cc1 (stereo not drawn) [Compound (V)]
CCCCC(CC)COC(=O)c1ccc(NC(=O)c2ccc(Nc3nc(Nc4ccc(C(=O)NC(C)(C)C)cc4)nc(Nc4ccc(C(=O)OCC(CC)CCCC)cc4)n3)cc2)cc1 (stereo not drawn) [Compound (VI)]
CCCCC(CC)COC(=O)c1ccc(NC(=O)c2ccc(Nc3nc(Nc4ccc(C(=O)OCC(CC)CCCC)cc4)nc(Nc4ccc(C(=O)OCC(CC)CCCC)cc4)n3)cc2)cc1 (stereo not drawn) [Compound (VII)]
